Converted amounts (≈) assume the structure as drawn.
Tests used:
B16 [1] = assay: Inhibition of alpha-MSH-stimulated melanogenesis in mouse B16 cells assessed as melanin release after 72 hrs; type: functional, cell-based; conditions: for IC50: B16, 72 h
B16 [2] = assay: Cytotoxicity against mouse B16 cells assessed as cell viability; type: cell-based

O=c1cc(CO)occ1O [KOJIC ACID]
IC50 (B16 [1]): 5.5 µg/mL (≈ 38.7 µM)

COC(C)(C)/C=C/[C@]1(OC)O[C@H]2CC(C)=CC(=O)[C@H]2[C@@]1(C)O [OSTERIVOLONE B]
inhibition (B16 [1]): Dose-dependent effect
IC50 (B16 [1]): 5.6 µg/mL (≈ 18 µM)
Activity (B16 [2]): Non-toxic

CO[C@@]1(C(C=C(C)C)OC(C=C(C)C)[C@]2(O)O[C@H]3CC(C)=CC(=O)[C@H]3[C@@]2(C)O)O[C@H]2CC(C)=CC(=O)[C@H]2[C@@]1(C)O (some centres undefined) [OSTERIVOLONE C]
inhibition (B16 [1]): Dose-dependent effect
IC50 (B16 [1]): 4.5 µg/mL (≈ 8.03 µM)
Activity (B16 [2]): Non-toxic

O=c1ccc2cc3ccoc3cc2o1 [PSORALEN]
IC50 (B16 [1]): > 200 µg/mL

CO[C@@]1(/C=C/C(C)(C)O)O[C@H]2CC(C)=CC(=O)[C@H]2[C@@]1(C)O [OSTERIVOLONE A]
inhibition (B16 [1]): Dose-dependent effect
IC50 (B16 [1]): 1.1 µg/mL (≈ 3.71 µM)
Activity (B16 [2]): Non-toxic

CC(C)=C/C=C1\O[C@@H]2CC(C)=CC(=O)[C@@H]2[C@]1(C)O [BISABOLANGELONE]
inhibition (B16 [1]): Dose-dependent effect
IC50 (B16 [1]): 5.3 µg/mL (≈ 21.3 µM)
Activity (B16 [2]): Non-toxic

OC[C@H]1O[C@@H](Oc2ccc(O)cc2)[C@H](O)[C@@H](O)[C@@H]1O [ARBUTIN]
IC50 (B16 [1]): 67.9 µg/mL (≈ 249 µM)

CC(C)=C/C=C1\O[C@H]2C[C@](C)(O)CC(=O)[C@H]2[C@@]1(C)O [OSTERIVOLONE D]
inhibition (B16 [1]): Dose-dependent effect
IC50 (B16 [1]): 1.9 µg/mL (≈ 7.13 µM)
Activity (B16 [2]): Non-toxic

C/C=C(/C)C(=O)O[C@H]1Cc2cc3ccc(=O)oc3cc2OC1(C)C [DECURSINOL ANGELATE]
inhibition (B16 [1]): Dose-dependent effect
IC50 (B16 [1]): 5.8 µg/mL (≈ 17.7 µM)
Activity (B16 [2]): Non-toxic

C=C[C@@H](O)C#CC#C[C@@H](O)/C=C\CCCCCCC [FALCARINDIOL]
inhibition (B16 [1]): Dose-dependent effect
IC50 (B16 [1]): 2.9 µg/mL (≈ 11.1 µM)
Activity (B16 [2]): Non-toxic
